Test results from ChEMBL document CHEMBL1221352, “Synthesis and biological activity of flavanone derivatives” (Bioorg Med Chem Lett, 2010).

Experiments:
BGC-823 = test: Antitumor activity against human BGC823 cells; assay type: functional; design: concentration or dose not given beside the values
[1] = Inhibition of protein tyrosin kinase
KB = test: Antitumor activity against human KB cells; assay type: functional; design: concentration or dose not given beside the values
[2] = Antivegetative activity against rat VSMC; assay type: functional, cell-based
Bel-7402 = test: Antitumor activity against human Bel7402 cells; assay type: functional; design: concentration or dose not given beside the values
HUVEC = test: Cytoprotectant activity against H2O2-induced injury in HUVEC cells; assay type: functional, cell-based, Homo sapiens
HL-60 = test: Antitumor activity against human HL60 cells; assay type: functional; design: concentration or dose not given beside the values
[3] = Homo sapiens, HUVEC, read-out: EC50

SMILES | Activity (BGC-823) [%] | IC50 ([1]; read-out: IC50) [µM] | Activity (KB) [%] | IC50 ([2]; read-out: IC50) [µM] | Activity (Bel-7402) [%] | EC50 (HUVEC; [3]) [µM] | Activity (HL-60) [%] | IC50 [1] | IC50 [2] | EC50 (HUVEC; huvec)
Cc1c(O)c(C)c2c(c1O)C(=O)CC(c1ccccc1Cl)O2 (centres undefined) | 36.98 | > 50 | 28.63 | > 20 | 18.7 | > 20 | 2.94 |  |  | 
COc1ccc2cc1Oc1ccc(cc1)C[C@H]1c3cc(c(OC)cc3CCN1C)Oc1c(OC)c(OC)cc3c1[C@H](C2)N(C)CC3 [FANCHININ] |  |  |  | 1.48 |  |  |  |  |  | 
Cc1c(O)c(C)c2c(c1O)C(=O)CC(c1ccc([N+](=O)[O-])cc1)O2 (centres undefined) | -7.41 |  | -9.11 |  | 2.05 | > 20 | -0.46 | Not Active | Not Active | 
Cc1c(O)c(C)c2c(c1O)C(=O)CC(c1ccc(Cl)cc1)O2 (centres undefined) | -22.45 |  | 15.89 |  | -7.1 | > 50 | 7.65 | Not Active | Not Active | 
Cc1c(O)c(C)c2c(c1O)C(=O)CC(c1ccc(O)c(O)c1)O2 (centres undefined) [CYRTOMINETIN] | -19.81 | > 50 | 45.3 |  | -7.68 | > 20 | -4.85 |  | Not Active | 
O=c1c(-c2ccc(O)cc2)coc2cc(O)cc(O)c12 [GENISTEIN] |  | 13.6 |  |  |  |  |  |  |  | 
COc1cc(O)ccc1C1CC(=O)c2c(O)c(C)c(O)c(C)c2O1 (centres undefined) | 4.85 | > 200 | -18.83 | > 100 | 2.54 | > 20 | -1.29 |  |  | 
Cc1c(O)c(C)c2c(c1O)C(=O)CC(c1ccccc1[N+](=O)[O-])O2 (centres undefined) | 52 | > 50 | 29.04 | 9.9 | 27.18 | > 5 | -6.16 |  |  | 
Cc1c(O)c(C)c2c(c1O)C(=O)CC(c1ccco1)O2 (centres undefined) | -9.68 |  | -26.34 | 6.7 | 3.27 | > 20 | 12.96 | Not Active |  | 
Cc1c(O)c(C)c2c(c1O)C(=O)CC(c1ccc(O)cc1)O2 (centres undefined) | -23.52 | > 200 | -7.21 |  | -6.53 | > 20 | -3.37 |  | Not Active | 
Cc1c(O)c(C)c2c(c1O)C(=O)CC(c1cccc(O)c1)O2 (centres undefined) | -7.6 | 51 | 28.66 |  | -5.48 | > 20 | -4.04 |  | Not Active | 
COc1ccc(C2CC(=O)c3c(O)c(C)c(O)c(C)c3O2)cc1 (centres undefined) | -28.89 | > 100 | -11.99 | > 100 | 15.15 |  | 8.52 |  |  | Not Active
COc1ccccc1C1CC(=O)c2c(O)c(C)c(O)c(C)c2O1 (centres undefined) |  | > 100 |  |  |  | > 20 |  |  | Not Active | 
Cc1c(O)c(C)c2c(c1O)C(=O)CC(c1ccccc1O)O2 (centres undefined) | -6.69 | 55 | 44.54 |  | -1.8 | > 20 | -6.47 |  | Not Active | 
Cc1c(O)c(C)c2c(c1O)C(=O)CC(c1ccsc1)O2 (centres undefined) | 50.71 |  | 16.07 |  | 11.59 | > 50 | 10.82 | Not Active | Not Active | 
Cc1c(O)c(C)c2c(c1O)C(=O)CC(c1c[nH]c3ccccc13)O2 (centres undefined) | 1.67 |  | 10.47 |  | 6.45 | > 10 | 11.39 | Not Active | Not Active | 
COc1ccc(C2CC(=O)c3c(O)c(C)c(O)c(C)c3O2)c(OC)c1 (centres undefined) |  |  |  |  |  |  |  | Not Active | Not Active | Not Active
Cc1c(O)c(C)c2c(c1O)C(=O)C[C@@H](c1ccccc1)O2 [DEMETHOXYMATTEUCINOL] | 13.51 |  | 3.64 | > 100 | 2.63 |  |  |  |  | Not Active
